T1: CT2 (Homo sapiens, UniProt Q86VW1)
T1 construct: a cRNA (RNA complementary to cDNA) was prepared in vitro from a plasmid containing the CT2cDNA; expressed in transfected cells; host or cells: Xenopus laevis oocytes injected with CT2 cRNA
T1 sequence (Q86VW1 1-543 isoform Q86VW1-2): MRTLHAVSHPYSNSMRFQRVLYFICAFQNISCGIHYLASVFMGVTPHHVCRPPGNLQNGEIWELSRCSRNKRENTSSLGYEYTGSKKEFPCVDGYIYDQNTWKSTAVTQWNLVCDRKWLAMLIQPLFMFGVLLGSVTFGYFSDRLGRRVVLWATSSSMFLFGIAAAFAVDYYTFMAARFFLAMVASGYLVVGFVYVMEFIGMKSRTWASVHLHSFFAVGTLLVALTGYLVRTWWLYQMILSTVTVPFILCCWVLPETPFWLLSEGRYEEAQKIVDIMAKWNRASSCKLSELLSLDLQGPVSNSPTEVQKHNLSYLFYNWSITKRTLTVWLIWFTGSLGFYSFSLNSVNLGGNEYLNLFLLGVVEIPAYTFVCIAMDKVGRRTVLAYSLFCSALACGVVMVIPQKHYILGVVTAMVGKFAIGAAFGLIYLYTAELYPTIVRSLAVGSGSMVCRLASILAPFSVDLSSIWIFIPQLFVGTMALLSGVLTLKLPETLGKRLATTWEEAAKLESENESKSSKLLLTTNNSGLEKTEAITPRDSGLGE


Legend:
Type in all cases: cell-based
CT2 [1] = molecular target: T1, CT2; assay: uptake experiment of radioactive labeled substrates by oocytes injected with human CT2 cRNA; settings: platanna oocytes injected with CT2 cRNA; FIG. 1A
Method: It is possible to confirm the ability to transport (uptake) carnitine into a cell by expressing a cRNA prepared from the obtained CT2cDNA by introducing the cRNA into an oocyte and measuring a substrate uptake into the cell employing an ordinary uptake experiment (Sekine, T et al., Biochem. Biophis. Res. Commun., Vol. 251, pp. 586-591, 1998) wherein carnitine is used as a substrate.
Next, a cRNA (RNA complementary to cDNA) was prepared in vitro from a plasmid containing the CT2cDNA by using a T7RNA polymerase (see Sekine, T., et al., J. Biol. Chem., Vol. 272, pp. 18526-18529, 1997).
(§1) The thus-obtained cRNA was injected into oocytes of a platanna in accordance with the already reported method (Sekine, T. et al., J. Biol. Chem., Vol. 272, pp. 18526-18529, 1997), and an uptake experiment by radioactive labeled L-carnitine was conducted on the oocytes.
A concentration dependence of the carnitine transport by CT2 was studied through an investigation of changes in amounts of uptake of various concentration carnitines by CT2. The uptake experiment of radioactive labeled carnitines was performed by using oocytes into which the CT2cRNA was injected and in accordance with the above-described method.

CT2 [2] = molecular target: T1, CT2; assay: inhibition experiment: ^3H-carnitine uptake by oocytes injected with CT2 cRNA in the presence of unlabelled compounds; settings: for inhibition of ^3H-carnitine transport by CT2: 50 nM ^3H-carnitine, 5 μM or 50 μM unlabelled compound, FIG. 4
Method: as §1
(3) An influence to be exerted by D-Carnitine, which is an isomer of L-carnitine, on the L-carnitine transport by CT2 was studied.
(6) In order to study further on the substrate selectivity of CT2, in the ^3H-carnitine uptake experiment system by oocytes into which CT2cRNA was injected, various carnitine analogs were added to the system and its influences were investigated (inhibition experiment).
The ^3H-carnitine uptake experiment was performed in accordance with the above-described method using oocytes into which CT2cRNA was injected. 50 nM ^3H-carnitine uptake was measured in the presence or absence of 5 μM or 50 μM of various compounds (unlabelled).

[3] = substrate: C[N+](C)(C)C[C@H](O)CC(=O)[O-]; assay: uptake experiment of radioactive labeled substrates by oocytes injected with human CT2 cRNA; settings: other: Michaelis-Menten kinetics, oocytes injected with CT2cRNA; FIG. 2A

Molecule | uptake of radioactive labeled substrate by oocytes which expressed the CT2 (CT2 [1]) | inhibition of ^3H-carnitine transport by CT2 (CT2 [2]) | also measured
CC[N+](CC)(CC)CC [tetraethylammnonium, tetraethyl ammonium] | not observed | did not show inhibition effect | 
C[N+](C)(C)C[C@H](O)CC(=O)[O-] [L-carnitine] | exhibit ^3H-L-carnitine uptake |  | 
CC(=O)O[C@H](CC(=O)[O-])C[N+](C)(C)C [acetyl L-carnitine] |  | significantly inhibited | 
CC(=O)OC(CC(=O)[O-])C[N+](C)(C)C (racemic) [acetyl DL-carnitine] |  | significantly inhibited | 
CT2 (Homo sapiens) (protein, a cRNA (RNA complementary to cDNA) was prepared in vitro from a plasmid containing the CT2cDNA; expressed in transfected cells; host or cells: Xenopus laevis oocytes injected with CT2 cRNA) MRTLHAVSHPYSNSMRFQRVLYFICAFQNISCGIHYLASVFMGVTPHHVCRPPGNLQNGEIWELSRCSRNKRENTSSLGYEYTGSKKEFPCVDGYIYDQNTWKSTAVTQWNLVCDRKWLAMLIQPLFMFGVLLGSVTFGYFSDRLGRRVVLWATSSSMFLFGIAAAFAVDYYTFMAARFFLAMVASGYLVVGFVYVMEFIGMKSRTWASVHLHSFFAVGTLLVALTGYLVRTWWLYQMILSTVTVPFILCCWVLPETPFWLLSEGRYEEAQKIVDIMAKWNRASSCKLSELLSLDLQGPVSNSPTEVQKHNLSYLFYNWSITKRTLTVWLIWFTGSLGFYSFSLNSVNLGGNEYLNLFLLGVVEIPAYTFVCIAMDKVGRRTVLAYSLFCSALACGVVMVIPQKHYILGVVTAMVGKFAIGAAFGLIYLYTAELYPTIVRSLAVGSGSMVCRLASILAPFSVDLSSIWIFIPQLFVGTMALLSGVLTLKLPETLGKRLATTWEEAAKLESENESKSSKLLLTTNNSGLEKTEAITPRDSGLGE |  |  | Km [3]: 20.3 µM

Further lines, with some results ahead:

uptake of radioactive labeled substrate by oocytes which expressed the CT2 (CT2 [1]) | inhibition of ^3H-carnitine transport by CT2 (CT2 [2]) | Molecule | also measured
 | significantly inhibited | C[N+](C)(C)C[C@@H](O)CC(=O)[O-] [D-carnitine] | inhibition of the L-carnitine transport by CT2 (concentration dependence) (CT2 [2]; oocytes injected with CT2 cRNA, FIG. 2B): inhibited the L-carnitine transport by CT2 in a concentration dependent manner; Ki (CT2 [2]; oocytes injected with CT2 cRNA, FIG. 2B, read-out: Ki value, inhibition of the L-carnitine transport by CT2): ~30.1 µM
 | significantly inhibited | C[N+](C)(C)CC(=O)O [betaine] | 
not observed | did not show inhibition effect | Nc1ccc(C(=O)NCC(=O)O)cc1 [paraamino hippuric acid] | 
 | significantly inhibited | CCCCCCCC(=O)O[C@H](CC(=O)[O-])C[N+](C)(C)C [octanoyl L-carnitine] | 

Reference: patent US7582447B2, “DNA encoding a testicular carnitine transporter” (Human Cell Systems, Inc., priority 2001, dated 2009)
